# B1: P. shermanii epimerase: methylmalonyl-CoA epimerase from Propionibacterium shermanii expressed in E. coli, SEQ ID NO: 2 (protein)
# chain: MSNEDLFICIDHVAYACPDADEASKYYQETFGWHELHREENPEQGVVEIMMAPAAKLTEHMTQVQVMAPLNDESTVAKWLAKHNGRAGLHHMAWRVDDIDAVSATLRERGVQLLYDEPKLGTGGNRINFMHPKSGKGVLIELTQYPKN
# modifications: Deduced amino acid sequence of the epimerase gene sequence
# Experiments:
# [1] = Spontaneous chemical epimerization between (R)- and (S)-mm-CoA; assay type: physicochemical; settings: in 15 minutes
# [2] = Stability of acyl-CoAs in TCA and mutase assay buffer (HPLC); assay type: physicochemical; settings: mutase assay conditions, 30° C.
# Method: To test whether acyl-CoAs degrade in TCA, the following tests were conducted. The CoA mix consisted of 1.6 mM each of malonyl-, methylmalonyl-, succinyl-, acetyl-, and propionyl-CoA, plus 0.5 mM CoA. An aliquot (10 μL) of this mix was added to 100 μL 10% TCA, 50 μL were immediately injected to the HPLC for CoA analysis, and the remainder was promptly frozen on dry ice. The frozen portion was then thawed and loaded immediately to the HPLC. Again, 10 μL of the CoA mix were added to 100 μL 10% TCA, 50 μL were left on ice for 15 minutes and then injected to the HPLC, the remainder was left at 4° C. overnight and injected to the HPLC the next morning. The area under each CoA peak was noted. This same procedure was followed but using a mixture of TCA and buffer A from the mutase assay.
# The CoA analysis described here is carried out on cells which are lysed in 10% TCA. […] Thus, the CoAs are stable in TCA and in the mutase assay buffer after the cells are lysed or after the assays are completed, and prior to HPLC analysis.
# Although the CoAs are stable in TCA and buffer at 4° C., they degraded at 30° C., the temperature at which the mutase assay was performed. In five minutes under the assay conditions, about 4% of the methylmalonyl-CoA hydrolyzed to CoA. […] Thus, the mutase assay is suboptimal for extremely quantitative results.
# [3] = Epimerase assay coupled to transcarboxylase and malate dehydrogenase, crude E. coli extracts; assay type: biochemical; settings: 30° C.
# Method: Cells of strain BL2] (DE3) containing pET-epsherm, pET-epcoel, pET-epsub, or a control pET vector were grown overnight at 37° C. in 2 mL LB containing 100 μg/ml carbenicillin. The starter culture (250 μL) was used to inoculate 25 mL LB containing 100 μg/ml carbenicillin. The cultures were grown at 37° C. to an OD of approximately 0.4, then induced with IPTG to 1 mM final concentration and grown for an additional 3 hours at 30° C. The cells were collected by centrifugation at 4000 rpm for 10 minutes, and the pellets were stored at −80° C. prior to assay. […]
# Epimerase activity was measured in crude extracts of E. coli harboring either pET-epsherm, pET-epcoel, pET-epsub, or a control pET vector. The epimerase assay couples transcarboxylase, which converts (S)-methylmalonyl-CoA into propionyl-CoA, to malate dehydrogenase, which converts NADH into NAD^+, producing a decrease in absorbance at 340 nm. […] When an extract containing epimerase is added to the assay, the (R)-isomer is converted to (S)—, resulting in a further decrease in absorbance. […]
# The pellet from approximately 20 mL of culture was thawed and resuspended in 2 mL 1X assay buffer containing a protease inhibitor cocktail tablet. […] The reaction was initiated with (2R,2S)-methylmalonyl-CoA and the decrease in absorbance at 340 nm was monitored, reflecting the disappearance of the 2S isomer. […]
molecule,measurement,setting,value
CC(C(=O)O)C(=O)SCCNC(=O)CCNC(=O)[C@H](O)C(C)(C)COP(=O)(O)OP(=O)(O)OC[C@H]1O[C@@H](n2cnc3c(N)ncnc32)[C@H](O)[C@@H]1OP(=O)(O)O (stereo partly shown) [methylmalonyl-CoA],spontaneous chemical epimerization between (R)- and (S)-mm-CoA,[1],approximately 3%
same,hydrolyzed to CoA,[2]; five minutes,about 4%
CC(C)(COP(=O)(O)OP(=O)(O)OC[C@H]1O[C@@H](n2cnc3c(N)ncnc32)[C@H](O)[C@@H]1OP(=O)(O)O)[C@@H](O)C(=O)NCCC(=O)NCCSC(=O)CCC(=O)O [succinyl-CoA],rate of hydrolysis relative to methylmalonyl-CoA,[2],comparable rate
B1,specific activity,[3],approximately 30 units/mg
